Data taken from ChEMBL document CHEMBL3232845 (Bioorg Med Chem Lett, 2014).

Tests used:
Parameters in all cases: scale not given: the % may be the effect or the level left
[1] = biological target: Insulin receptor (Homo sapiens) (UniProt P06213); assay: Inhibition of human activated IR assessed as enzyme activity at 1 uM relative to control
[2] = biological target: Calcium/calmodulin-dependent protein kinase type II subunit beta (Homo sapiens) (UniProt Q13554); assay: Inhibition of human CAMK2b assessed as enzyme activity at 1 uM relative to control
[3] = biological target: CDK3/Cyclin E (Homo sapiens) (UniProt P24864+Q00526); assay: Inhibition of human CDK3/cyclinE assessed as enzyme activity at 1 uM relative to control; format: protein-complex assay
[4] = biological target: Ephrin type-B receptor 3 (Homo sapiens) (UniProt P54753); assay: Inhibition of human EphB3 assessed as enzyme activity at 1 uM relative to control
[5] = biological target: Macrophage-stimulating protein receptor (Homo sapiens) (UniProt Q04912); assay: Inhibition of human Ron assessed as enzyme activity at 1 uM relative to control
[6] = biological target: CDK7/Cyclin H/MNAT1 (Homo sapiens) (UniProt P51946+P50613+P51948); assay: Inhibition of human CDK7/cyclinH/MAT1 assessed as enzyme activity at 1 uM relative to control; format: protein-complex assay
[7] = biological target: Inhibitor of nuclear factor kappa-B kinase subunit alpha (Homo sapiens) (UniProt O15111); assay: Inhibition of human IKKalpha assessed as enzyme activity at 1 uM relative to control
Chain of Inhibitor of nuclear factor kappa-B kinase subunit alpha (Homo sapiens) (O15111 whole entry): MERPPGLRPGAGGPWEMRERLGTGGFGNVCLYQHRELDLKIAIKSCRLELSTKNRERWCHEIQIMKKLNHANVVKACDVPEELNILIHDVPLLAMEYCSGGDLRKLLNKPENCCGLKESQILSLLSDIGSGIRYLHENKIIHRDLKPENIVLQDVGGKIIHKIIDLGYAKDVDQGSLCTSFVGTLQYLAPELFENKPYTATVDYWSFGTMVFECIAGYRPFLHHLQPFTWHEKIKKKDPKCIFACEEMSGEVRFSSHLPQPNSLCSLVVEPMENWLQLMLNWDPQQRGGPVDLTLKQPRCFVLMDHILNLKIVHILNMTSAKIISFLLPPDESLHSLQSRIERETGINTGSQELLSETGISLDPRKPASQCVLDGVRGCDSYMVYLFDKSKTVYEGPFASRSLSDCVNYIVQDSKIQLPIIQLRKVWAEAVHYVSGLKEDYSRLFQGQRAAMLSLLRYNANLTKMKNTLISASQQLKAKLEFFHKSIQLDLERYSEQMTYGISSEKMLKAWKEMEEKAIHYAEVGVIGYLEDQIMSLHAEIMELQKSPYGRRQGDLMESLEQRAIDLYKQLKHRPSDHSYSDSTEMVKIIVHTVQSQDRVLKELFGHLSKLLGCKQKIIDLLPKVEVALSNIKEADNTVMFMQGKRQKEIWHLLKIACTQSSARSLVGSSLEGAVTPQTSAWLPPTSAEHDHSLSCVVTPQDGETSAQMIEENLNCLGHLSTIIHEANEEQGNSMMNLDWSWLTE

Chain of Insulin receptor (Homo sapiens) (P06213 28-758 limits assumed): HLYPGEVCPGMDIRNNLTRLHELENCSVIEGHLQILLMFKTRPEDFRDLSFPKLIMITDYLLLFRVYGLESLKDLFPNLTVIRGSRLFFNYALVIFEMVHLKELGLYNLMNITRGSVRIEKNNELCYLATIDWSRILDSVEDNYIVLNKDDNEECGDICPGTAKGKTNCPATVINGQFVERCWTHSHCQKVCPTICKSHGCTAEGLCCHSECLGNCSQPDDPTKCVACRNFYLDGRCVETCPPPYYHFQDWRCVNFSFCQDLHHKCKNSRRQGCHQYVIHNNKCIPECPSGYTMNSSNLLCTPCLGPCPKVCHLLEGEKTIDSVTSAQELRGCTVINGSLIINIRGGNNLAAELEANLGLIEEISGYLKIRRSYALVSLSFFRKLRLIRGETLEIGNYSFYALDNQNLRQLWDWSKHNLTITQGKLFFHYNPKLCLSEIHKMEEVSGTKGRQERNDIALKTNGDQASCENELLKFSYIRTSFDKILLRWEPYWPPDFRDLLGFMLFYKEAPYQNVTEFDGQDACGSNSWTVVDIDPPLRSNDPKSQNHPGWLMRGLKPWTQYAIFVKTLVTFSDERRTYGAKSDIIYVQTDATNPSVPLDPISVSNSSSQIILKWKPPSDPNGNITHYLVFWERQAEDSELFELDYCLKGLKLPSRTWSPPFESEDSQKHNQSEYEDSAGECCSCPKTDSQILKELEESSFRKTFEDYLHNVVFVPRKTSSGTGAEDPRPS
Chain of Insulin receptor (Homo sapiens) (P06213 763-1382 limits assumed): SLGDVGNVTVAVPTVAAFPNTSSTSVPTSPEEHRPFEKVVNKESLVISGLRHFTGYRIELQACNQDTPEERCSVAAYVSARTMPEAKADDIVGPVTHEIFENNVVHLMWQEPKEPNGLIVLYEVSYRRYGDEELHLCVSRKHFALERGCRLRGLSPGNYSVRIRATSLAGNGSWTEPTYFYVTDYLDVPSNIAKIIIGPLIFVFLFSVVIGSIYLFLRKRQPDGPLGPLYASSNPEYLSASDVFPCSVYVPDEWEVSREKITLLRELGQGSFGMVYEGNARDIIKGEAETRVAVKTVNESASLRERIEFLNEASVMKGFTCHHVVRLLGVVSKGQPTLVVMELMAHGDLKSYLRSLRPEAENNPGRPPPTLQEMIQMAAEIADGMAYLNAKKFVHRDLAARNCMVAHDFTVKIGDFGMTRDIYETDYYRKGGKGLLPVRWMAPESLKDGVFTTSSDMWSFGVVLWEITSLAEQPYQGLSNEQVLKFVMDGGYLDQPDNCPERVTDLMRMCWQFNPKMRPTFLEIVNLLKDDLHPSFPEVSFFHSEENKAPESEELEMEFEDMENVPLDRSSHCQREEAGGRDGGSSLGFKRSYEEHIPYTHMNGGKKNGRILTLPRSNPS
Chain of Ephrin type-B receptor 3 (Homo sapiens) (P54753 whole entry): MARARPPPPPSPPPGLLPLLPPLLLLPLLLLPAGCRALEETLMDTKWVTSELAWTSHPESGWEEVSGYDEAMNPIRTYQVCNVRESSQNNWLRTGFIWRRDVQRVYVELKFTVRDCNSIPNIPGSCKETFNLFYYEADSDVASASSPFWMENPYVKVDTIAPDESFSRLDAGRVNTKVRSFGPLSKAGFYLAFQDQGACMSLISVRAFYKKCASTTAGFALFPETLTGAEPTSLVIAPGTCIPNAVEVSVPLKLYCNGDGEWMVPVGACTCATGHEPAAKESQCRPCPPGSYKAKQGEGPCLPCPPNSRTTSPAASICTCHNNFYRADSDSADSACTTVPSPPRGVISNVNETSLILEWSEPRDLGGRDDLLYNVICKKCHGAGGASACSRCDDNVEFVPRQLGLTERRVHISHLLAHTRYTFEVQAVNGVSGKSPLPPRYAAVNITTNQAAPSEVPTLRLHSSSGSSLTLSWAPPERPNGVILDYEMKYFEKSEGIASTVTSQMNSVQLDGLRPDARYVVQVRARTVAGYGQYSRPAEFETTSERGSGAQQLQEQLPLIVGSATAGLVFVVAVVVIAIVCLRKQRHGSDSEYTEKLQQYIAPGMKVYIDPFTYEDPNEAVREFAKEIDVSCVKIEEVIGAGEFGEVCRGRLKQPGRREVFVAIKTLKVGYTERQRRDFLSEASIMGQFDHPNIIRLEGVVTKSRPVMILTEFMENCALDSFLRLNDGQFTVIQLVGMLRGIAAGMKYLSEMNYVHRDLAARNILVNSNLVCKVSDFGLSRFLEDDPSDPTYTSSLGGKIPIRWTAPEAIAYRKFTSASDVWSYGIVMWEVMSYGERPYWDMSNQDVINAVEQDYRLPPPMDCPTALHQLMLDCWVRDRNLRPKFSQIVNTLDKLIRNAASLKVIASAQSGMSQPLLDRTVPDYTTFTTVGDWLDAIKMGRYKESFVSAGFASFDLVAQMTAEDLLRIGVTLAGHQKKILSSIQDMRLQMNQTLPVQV
Chain of Calcium/calmodulin-dependent protein kinase type II subunit beta (Homo sapiens) (Q13554 whole entry): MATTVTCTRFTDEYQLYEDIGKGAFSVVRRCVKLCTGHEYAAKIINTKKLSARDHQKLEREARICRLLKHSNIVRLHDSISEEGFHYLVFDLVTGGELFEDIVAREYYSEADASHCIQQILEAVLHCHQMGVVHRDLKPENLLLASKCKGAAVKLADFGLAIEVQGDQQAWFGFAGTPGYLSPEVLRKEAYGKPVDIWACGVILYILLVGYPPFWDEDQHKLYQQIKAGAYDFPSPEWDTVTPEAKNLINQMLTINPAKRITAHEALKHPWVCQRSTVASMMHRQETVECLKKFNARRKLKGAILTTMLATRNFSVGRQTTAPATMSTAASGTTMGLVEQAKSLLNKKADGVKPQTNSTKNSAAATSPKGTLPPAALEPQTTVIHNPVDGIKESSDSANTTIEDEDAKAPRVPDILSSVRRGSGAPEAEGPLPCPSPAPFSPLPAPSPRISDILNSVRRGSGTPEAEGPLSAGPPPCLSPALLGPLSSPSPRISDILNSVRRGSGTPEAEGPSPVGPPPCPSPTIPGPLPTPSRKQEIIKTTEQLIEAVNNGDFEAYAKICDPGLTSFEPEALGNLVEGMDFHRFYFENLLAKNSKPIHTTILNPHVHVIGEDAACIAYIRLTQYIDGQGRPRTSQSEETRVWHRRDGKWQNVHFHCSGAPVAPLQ
Chain of CDK3/Cyclin E (Homo sapiens) (P24864 whole entry, looked up): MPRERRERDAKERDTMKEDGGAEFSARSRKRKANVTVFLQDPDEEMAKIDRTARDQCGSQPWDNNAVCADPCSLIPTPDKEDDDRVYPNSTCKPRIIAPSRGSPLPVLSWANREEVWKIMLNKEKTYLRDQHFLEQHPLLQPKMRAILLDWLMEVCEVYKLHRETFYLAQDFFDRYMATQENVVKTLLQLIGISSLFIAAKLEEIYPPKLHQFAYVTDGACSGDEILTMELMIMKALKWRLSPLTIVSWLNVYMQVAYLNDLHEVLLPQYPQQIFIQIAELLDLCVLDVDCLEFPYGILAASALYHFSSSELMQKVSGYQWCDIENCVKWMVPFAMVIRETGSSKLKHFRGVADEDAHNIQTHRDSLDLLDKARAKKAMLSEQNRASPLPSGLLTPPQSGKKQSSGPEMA
Chain of CDK3/Cyclin E (Homo sapiens) (Q00526 whole entry, looked up): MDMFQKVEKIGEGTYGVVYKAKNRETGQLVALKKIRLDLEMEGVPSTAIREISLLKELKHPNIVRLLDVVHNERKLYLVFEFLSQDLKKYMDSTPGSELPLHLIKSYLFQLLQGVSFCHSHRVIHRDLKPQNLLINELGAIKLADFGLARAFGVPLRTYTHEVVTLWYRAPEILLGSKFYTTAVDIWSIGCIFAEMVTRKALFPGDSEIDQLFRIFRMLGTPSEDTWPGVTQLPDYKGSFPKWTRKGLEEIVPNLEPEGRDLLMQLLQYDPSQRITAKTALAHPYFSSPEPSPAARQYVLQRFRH

Activity [1]: 95%
Activity [2]: 107%
Activity [3]: 106%
Activity [4]: 91.5%
Activity [5]: 110%
Activity [6]: 104%
Activity [7]: 129%
Structure (SMILES): CCCS(=O)(=O)Nc1cccc(Nc2ccc3ncn(C)c(=O)c3c2)c1C#N
